Measured values: ChEMBL document CHEMBL1201862, “PubChem BioAssay data set” (2004)
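Growth conditions: 96-well plates. Treatment: test compound, 48 hours, 5 concentrations. Analysis: linear interpolation between bracketing concentrations; unreached endpoints set to highest concentration. The concentration for 50% growth inhibition is given as GI50.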 Calls of active or inactive are those of the source. No stated cut-off is given here; in the data, active = GI50 up to about 1.1 µM and inactive = higher.

Experiments:
Experiment in all cases: NCI anticancer screen, dose series, 48 h
NCI-H460 = tested on: NCI-H460
BT-549 = tested on: BT-549
OVCAR-4 = tested on: OVCAR-4
MOLT-4 = tested on: MOLT-4
RPMI-8226 = tested on: RPMI-8226
IGROV-1 = tested on: IGROV-1
SW-620 = tested on: SW-620
LOX IMVI = tested on: LOX IMVI
DU-145 = tested on: DU-145
K562 = tested on: K562
UACC-62 = tested on: UACC-62
SF-295 = tested on: SF-295
HCT-116 = tested on: HCT-116
SF-268 = tested on: SF-268
UO-31 = tested on: UO-31
MCF7 = tested on: MCF7
MDA-N = tested on: MDA-N
HOP-92 = tested on: HOP-92
SK-MEL-28 = tested on: SK-MEL-28
CCRF-CEM = tested on: CCRF-CEM

Measured: GI50

Cc1ccc(S(=O)(=O)c2ccsc2NC(=O)c2ccccc2)cc1
inactive: NCI-H460 41.1 µM | BT-549 > 100 µM | OVCAR-4 20.9 µM | MOLT-4 > 100 µM | RPMI-8226 > 100 µM | IGROV-1 > 43.3 µM | SW-620 > 100 µM | LOX IMVI > 64 µM | DU-145 > 100 µM | K562 2.17 µM | UACC-62 > 100 µM | SF-295 22.1 µM | HCT-116 > 100 µM | SF-268 31.3 µM | UO-31 > 49.3 µM | MCF7 > 26.7 µM | MDA-N 3.39 µM | HOP-92 26.7 µM | SK-MEL-28 > 100 µM

CC(=O)OC(=C(C#N)C#N)c1nccnc1C(=O)O
inactive: NCI-H460 > 100 µM | BT-549 > 100 µM | OVCAR-4 > 100 µM | MOLT-4 > 100 µM | RPMI-8226 > 100 µM | IGROV-1 > 100 µM | SW-620 > 100 µM | LOX IMVI > 100 µM | DU-145 > 100 µM | K562 > 100 µM | UACC-62 > 100 µM | SF-295 > 100 µM | HCT-116 > 100 µM | SF-268 > 100 µM | UO-31 > 100 µM | MCF7 > 100 µM | MDA-N > 100 µM | HOP-92 > 100 µM | SK-MEL-28 > 100 µM

COc1ccccc1NC(=S)Nc1cc(C)cc(C)n1
inactive: NCI-H460 > 100 µM | BT-549 > 100 µM | OVCAR-4 > 100 µM | MOLT-4 > 100 µM | RPMI-8226 > 100 µM | IGROV-1 > 100 µM | SW-620 > 100 µM | LOX IMVI > 100 µM | DU-145 > 100 µM | K562 > 100 µM | CCRF-CEM > 100 µM | UACC-62 > 100 µM | SF-295 > 100 µM | HCT-116 > 100 µM | SF-268 > 100 µM | UO-31 > 100 µM | MCF7 > 100 µM | MDA-N > 100 µM | SK-MEL-28 > 100 µM

Cn1c2ccc([N+](=O)[O-])cc2c(=O)c2c(O)cc(O)cc21
inactive: NCI-H460 24.9 µM | BT-549 28.4 µM | OVCAR-4 31.2 µM | MOLT-4 45.2 µM | RPMI-8226 > 100 µM | IGROV-1 15.5 µM | SW-620 68.2 µM | LOX IMVI 37.1 µM | DU-145 47.8 µM | K562 > 100 µM | CCRF-CEM > 100 µM | UACC-62 54.5 µM | SF-295 15.3 µM | SF-268 19.7 µM | UO-31 59 µM | MCF7 13.7 µM | MDA-N > 100 µM | HOP-92 32.7 µM | SK-MEL-28 > 100 µM

CCOc1ccc(/N=N/C2C(=O)N(C(=O)CC(=O)Nc3ccc(Cl)cc3)N=C2C)cc1 (centres undefined)
inactive: NCI-H460 > 100 µM | BT-549 > 100 µM | OVCAR-4 > 100 µM | RPMI-8226 > 100 µM | IGROV-1 > 100 µM | SW-620 > 100 µM | LOX IMVI > 100 µM | DU-145 > 100 µM | CCRF-CEM > 100 µM | UACC-62 > 100 µM | SF-295 > 100 µM | HCT-116 > 100 µM | SF-268 > 100 µM | UO-31 > 100 µM | MCF7 > 100 µM | MDA-N > 100 µM | HOP-92 > 100 µM | SK-MEL-28 > 100 µM

CC1=C(C(=O)OCCc2ccc([N+](=O)[O-])cc2)C(c2cccc([N+](=O)[O-])c2)C(C(=O)OC(C)C)=C(C)N1 (centres undefined)
inactive: NCI-H460 3.72 µM | BT-549 2.94 µM | OVCAR-4 > 100 µM | MOLT-4 2.63 µM | RPMI-8226 2.88 µM | IGROV-1 9.53 µM | SW-620 6.68 µM | LOX IMVI 4.72 µM | DU-145 > 100 µM | K562 3.52 µM | CCRF-CEM 3.57 µM | UACC-62 4.48 µM | SF-295 4.19 µM | HCT-116 3.69 µM | SF-268 6.4 µM | UO-31 5.43 µM | MCF7 3.72 µM | MDA-N 5.11 µM | SK-MEL-28 80 µM

O=C1c2c(O)cc(O)cc2C(C2OC(CO)C(O)C(O)C2O)c2cc(CO)cc(O)c21 (centres undefined)
inactive: NCI-H460 > 100 µM | BT-549 > 100 µM | OVCAR-4 > 100 µM | MOLT-4 > 100 µM | RPMI-8226 > 100 µM | IGROV-1 > 100 µM | SW-620 > 100 µM | DU-145 > 100 µM | K562 > 100 µM | CCRF-CEM > 10 µM | UACC-62 > 100 µM | SF-295 > 100 µM | HCT-116 > 100 µM | SF-268 > 100 µM | UO-31 > 100 µM | MCF7 > 100 µM | MDA-N > 100 µM | HOP-92 > 100 µM | SK-MEL-28 > 100 µM

CCC(C(=O)c1cccs1)C(O)(C(F)(F)F)C(F)(F)F (centres undefined)
inactive: NCI-H460 > 100 µM | BT-549 > 100 µM | OVCAR-4 > 100 µM | MOLT-4 > 100 µM | RPMI-8226 > 100 µM | IGROV-1 > 100 µM | SW-620 > 100 µM | LOX IMVI > 100 µM | DU-145 > 100 µM | K562 > 100 µM | UACC-62 > 100 µM | SF-295 > 100 µM | HCT-116 > 100 µM | SF-268 > 100 µM | UO-31 > 100 µM | MCF7 > 100 µM | MDA-N > 100 µM | HOP-92 > 100 µM | SK-MEL-28 > 100 µM

COC(=O)C(C)(C)OCc1ccc(C2NC(=O)N(c3cccc(Cl)c3)C(=O)N2c2cccc(Cl)c2)cc1 (centres undefined)
inactive: NCI-H460 29.4 µM | BT-549 51.1 µM | OVCAR-4 57.5 µM | MOLT-4 8.07 µM | RPMI-8226 9.16 µM | IGROV-1 22 µM | SW-620 75.5 µM | DU-145 59.7 µM | K562 7.45 µM | CCRF-CEM 10.6 µM | UACC-62 36.6 µM | SF-295 31 µM | HCT-116 36.6 µM | SF-268 26.1 µM | UO-31 25.3 µM | MCF7 35.7 µM | MDA-N 55.8 µM | HOP-92 15.1 µM | SK-MEL-28 > 100 µM

CC[C@]12C=CCN3CC[C@@]4(c5cc(Br)c(OC)cc5N(C)[C@H]4[C@@](O)(C(=O)NC(Cc4c[nH]c5ccccc45)C(=O)OC)[C@@H]1O)[C@@H]32 (some centres undefined)
inactive: BT-549 7.94 µM | OVCAR-4 20.5 µM | MOLT-4 2.87 µM | RPMI-8226 2.94 µM | IGROV-1 19.4 µM | SW-620 89.7 µM | LOX IMVI 4.6 µM | DU-145 35.2 µM | K562 5.37 µM | CCRF-CEM 5.62 µM | UACC-62 24.3 µM | SF-295 9.46 µM | HCT-116 7.08 µM | SF-268 6.15 µM | UO-31 20.8 µM | MCF7 12.3 µM | MDA-N 23.3 µM | HOP-92 22.3 µM | SK-MEL-28 92.9 µM
